The values below come from patent publication US9499517B2, “Substituted prolines / piperidines as orexin receptor antagonists” (Eolas Therapeutics, Inc., priority 2012, dated 2016).

The subject of series [1] is mice. The series is described as follows: Food self-administration (lever press for food pellets) in WT and Hcrt-R1 KO mice. It is filed as in vivo. As to conditions: systemic administration 30 min prior to the session.
In series [2] the target is T1, OX1 (Homo sapiens, UniProt O43613).
T1 construct: expressed in transfected cells; host or cells: CHO (CHO-OX1, kept under G418 or Blasticidin selection)
T1 sequence (O43613 1-425): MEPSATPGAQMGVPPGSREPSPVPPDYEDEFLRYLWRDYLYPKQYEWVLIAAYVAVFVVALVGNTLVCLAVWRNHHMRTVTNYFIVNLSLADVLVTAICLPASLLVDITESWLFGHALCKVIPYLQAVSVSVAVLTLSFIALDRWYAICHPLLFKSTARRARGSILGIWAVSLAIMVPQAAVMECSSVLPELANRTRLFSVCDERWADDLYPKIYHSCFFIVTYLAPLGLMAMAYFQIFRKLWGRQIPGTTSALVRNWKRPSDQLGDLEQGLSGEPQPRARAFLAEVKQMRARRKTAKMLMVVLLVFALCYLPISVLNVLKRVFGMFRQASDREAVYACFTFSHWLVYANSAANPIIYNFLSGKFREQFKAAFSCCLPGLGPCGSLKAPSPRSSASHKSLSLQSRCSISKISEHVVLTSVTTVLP
Put plainly: Orexin receptor cell-based functional assay: [Ca2+]i by FLIPR in CHO-OX1 cells, antagonism of EC90 of OXA. The procedure:
Orexin Receptor Cell-based Functional Assay.
Measurement of [Ca^2+]i using a FLIPR: CHO—OX1 or CHO—OX2 cells are seeded into black-walled clear-base 384-well plates (Costar) at a density of 20,000 cells per well in F12-K medium supplemented with 10% FBS and selection antibiotic (500 ug/ml G418 or 15 ug/ml Blasticidin) and cultured overnight. The cells are incubated with equal volume of calcium 4 loading buffer (Molecular Devices, Inc.) containing 2.5 mM probenecid at 37° C. for 30 min, followed by putative OX1 or OX2 receptor antagonists (dose-range 0.1 nM-10 μM) for another 30 min.

The target in series [3] is T2, CYP3A4 (Homo sapiens, UniProt P08684).
T2 construct: pre-incubated with human liver microsomes and NADPH for 30 minutes; from tissue; host or cells: human liver microsomes
T2 sequence (P08684 whole entry): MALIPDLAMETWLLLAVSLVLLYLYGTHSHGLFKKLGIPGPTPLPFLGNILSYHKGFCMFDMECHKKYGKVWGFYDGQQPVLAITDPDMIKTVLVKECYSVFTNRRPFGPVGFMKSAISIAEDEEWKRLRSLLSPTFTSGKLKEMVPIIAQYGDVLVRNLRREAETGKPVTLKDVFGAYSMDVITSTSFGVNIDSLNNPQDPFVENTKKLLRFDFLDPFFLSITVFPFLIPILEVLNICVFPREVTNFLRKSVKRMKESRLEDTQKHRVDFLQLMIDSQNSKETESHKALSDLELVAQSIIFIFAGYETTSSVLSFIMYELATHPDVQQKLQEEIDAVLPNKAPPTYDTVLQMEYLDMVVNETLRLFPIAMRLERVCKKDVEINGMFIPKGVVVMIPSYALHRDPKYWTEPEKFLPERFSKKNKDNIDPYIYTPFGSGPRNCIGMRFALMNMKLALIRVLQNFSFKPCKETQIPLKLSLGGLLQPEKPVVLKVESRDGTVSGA
The series is described as follows: Cytochrome P450 inhibition assay: midazolam hydroxylation to 1'-hydroxymidazolam in human liver microsomes, with or without 30 min pre-incubation. To be noted: human, human liver microsomes, probe midazolam, 10 μM test compound; for inhibition at 5 min, 10 µM: read-out: CYP3A4 % inh (10 μM, 5 min); for inhibition at 30 min, 10 µM: 30 min (time-dependent inhibition), read-out: CYP3A4 % inh (10 μM, 30 min). It counts as in vitro ADME. The procedure: (§1) Cytochrome P450 Inhibition Assay.
(§2) Compounds were tested for the potential to induce drug-drug interactions by inhibition of the cytochrome P450 3A4 isoform. The assay evaluated the metabolism of a specific marker substrate (CYP3A4, midazolam hydroxylation to 1′-hydroxymidazolam) in the presence or absence of 10 μM test compound. […] A specific inhibitor for the isoform was included in each run to validate the system. An appropriate positive control inhibitor was used. Mechanism-based inhibition was investigated where warranted using a classical method. […] The percent inhibition of the pre-incubated and non-pre-incubated samples were compared as a preliminary evaluation of time-dependent inhibition.
A general note: Microsomes from liver hold many membrane-bound enzymes, among them those of drug oxidation.

In series [4] the target is T3, cytochrome P450 3A4 isoform (Homo sapiens, UniProt P08684).
T3 construct: pre-incubated with human liver microsomes and NADPH for 30 minutes; from tissue; host or cells: human liver microsomes
T3 sequence (P08684 whole entry, canonical isoform): as the sequence (P08684 whole entry) above
The series is described as above. As to conditions: relative to Examples 112 and 114 (Table 4). It is filed as in vitro ADME. The procedure: as §1, §2

Series [5] has as its system mice. The series is described as follows: Nicotine self-administration assay (IV nicotine) in WT, Hcrt-R1 KO and virally-rescued mice. It is filed as in vivo. From the text: Nicotine Self-Administration Assay
Development of Animal Subjects.
To generate Hcrt-R1^+/+ and […] mice, breeding pairs of male and female Hcrt-R1^+/− mice that were backcrossed >10 generations on a C57BL/6 background were obtained from Jackson Laboratory (Bar Harbor, Me.). For all experiments, mice weighing 25-35 g were housed in groups of 2-3 per cage, in a temperature-controlled vivarium under a reversed 12-h light/dark cycle (lights off at 8 am). Food and water were provided ad libitum until behavioral training commenced. During training, mice were food-restricted to maintain ˜85-90% of their free-feeding body weight. Behavioral testing occurred during the dark portion of the light/dark cycle between the hours of 9 am-1 pm, during the early portion of the dark phase of the cycle. All procedures were conducted in strict adherence with the National Institutes of Health Guide for the Care and Use of Laboratory Animals and were approved by the Institutional Animal Care and Use Committee of The Scripps Research Institute.
Mice were anesthetized by inhalation of 1-3% isoflurane in oxygen and silastic catheters were inserted into the jugular veins. […] During the TO period, responding on the lever was recorded but without scheduled consequence. […]

The mark [6] stands for this setting: Table 2A, bioactivity with respect to OX1, CHO-OX1 cells, FLIPR, read-out: OX1.

Like-named read-outs stand apart in the source and are kept apart here.

As for `Cc1nc(C(=O)N2CCC[C@@H](C)[C@H]2CNc2ccc(C(F)(F)F)cn2)c(-c2ccc(F)cc2)s1` (racemic) [Example 11, rac-(5-(4-fluorophenyl)-2-methylthiazol-4-yl)((2S,3R)-3-methyl-2-(((5-(trifluoromethyl)pyridin-2-yl)amino)methyl)piperidin-1-yl)methanone], the “food self-administration (SA)” value in series [1] is “no effect on food SA”.

Regarding `CC(=O)NC1CCC(CNC(=O)c2cccc3cccnc23)N(C(=O)c2ccccc2-c2ccccc2)C1` (racemic) [Example 43, rac-N-((5-acetamido-1-(biphenylcarbonyl)piperidin-2-yl)methyl)quinoline-8-carboxamide], in series [2] (Table 2, IC50 bioactivity, CHO-OX1 cells, FLIPR, read-out: OX1), the IC50 turned out to be 2000 nM.

With `Cc1ccc(-c2ncccn2)c(C(=O)N2CCC[C@@H](C)[C@H]2CNc2ccc(C(F)(F)F)cn2)c1` (racemic) [Example 112, rac-((2S,3R)-3-methyl-2-(((5-(trifluoromethyl)pyridin-2-yl)amino)methyl)piperidin-1-yl)(5-methyl-2-(pyrimidin-2-yl)phenyl)methanone], in series [3], the inhibition at 5 min, 10 µM came to 72% and the inhibition at 30 min, 10 µM amounted to 94%. The IC50 in series [2] (Table 4, read-out: OX1 IC50) turned out to be 42 nM.

Turning to `Cc1ccc(-n2nccn2)c(C(=O)N2CCC[C@@H](C)[C@H]2CNc2ccc(C(F)(F)F)cn2)c1` (racemic) [Example 114, rac-((2S,3R)-3-methyl-2-(((5-(trifluoromethyl)pyridin-2-yl)amino)methyl)piperidin-1-yl)(5-methyl-2-(2H-1,2,3-triazol-2-yl)phenyl)methanone], in series [3], the inhibition at 5 min, 10 µM was 78% and the inhibition at 30 min, 10 µM was 93%.

For the molecule `C[C@@H]1CCCN(C(=O)c2cc(F)ccc2-c2ncccn2)[C@@H]1CNc1ncc(C(F)(F)F)cn1` [Compound A227, (5-Fluoro-2-(pyrimidin-2-yl)phenyl)((2S,3R)-3-methyl-2-(((5-(trifluoromethyl)pyrimidin-2-yl)amino)methyl)piperidin-1-yl)methanone], the inhibition at 30 min, 10 µM in series [3] stood at 58%.

As to `C[C@@H]1CCCN(C(=O)c2c(F)cccc2-n2nccn2)[C@@H]1CNc1ncc(C(F)(F)F)cn1` [Compound A259, (2-fluoro-6-(2H-1,2,3-triazol-2-yl)phenyl)((2S,3R)-3-methyl-2-(((5-(trifluoromethyl)pyrimidin-2-yl)amino)methyl)piperidin-1-yl)methanone], the inhibition at 30 min, 10 µM in series [3] was 41%.

With `Cc1ccc(-n2nccn2)c(C(=O)N2CCC[C@@H](C)[C@H]2CNc2nnc(C(F)(F)F)s2)c1` [Example A102, ((2S,3R)-3-Methyl-2-(((5-(trifluoromethyl)-1,3,4-thiadiazol-2-yl)amino)methyl)piperidin-1-yl)(5-methyl-2-(2H-1,2,3-triazol-2-yl)phenyl)methanone], in series [2] (setting [6]), the IC50 was 61 nM.

`Cc1ccc(-n2nccn2)c(C(=O)N2CCC[C@@H](C)[C@H]2CNc2ncc(C#N)cc2F)n1` [Example A193, 5-Fluoro-6-((((2S,3R)-3-methyl-1-(6-methyl-3-(2H-1,2,3-triazol-2-yl)picolinoyl)piperidin-2-yl)methyl)amino)nicotinonitrile]: the IC50 in series [2] (setting [6]) was found to be 100 nM.

As for `C[C@@H]1CCCN(C(=O)c2cc(Cl)ccc2-c2ncccn2)[C@@H]1CNc1ncc(C(F)(F)F)cn1` [Example A201, (5-Chloro-2-(pyrimidin-2-yl)phenyl)((2S,3R)-3-methyl-2-(((5-(trifluoromethyl)pyrimidin-2-yl)amino)methyl)piperidin-1-yl)methanone], the “inhibition of CYP3A4” value in series [4] is reported as “reduced inhibition of CYP3A4”. For the same molecule, in series [3], the inhibition at 30 min, 10 µM stood at 59%.

For the molecule `C[C@@H]1CCCN(C(=O)c2cc(F)ccc2-n2nccn2)[C@@H]1CNc1ncc(C(F)(F)F)cn1` [Example A207, (5-Fluoro-2-(2H-1,2,3-triazol-2-yl)phenyl)((2S,3R)-3-methyl-2-(((5-(trifluoromethyl)pyrimidin-2-yl)amino)methyl)piperidin-1-yl)methanone], the “inhibition of CYP3A4” value in series [4] is “reduced inhibition of CYP3A4”. In series [3], the inhibition at 30 min, 10 µM came to 52%.

For the molecule `CC1(C)OC[C@H](NC(=O)Nc2ccc(Br)cc2Br)[C@H](c2ccccc2)O1` [JNJ 10397049], the “food self-administration (SA)” value in series [1] is given as “no effect on SA of food pellets”. The “nicotine self-administration (SA)” value is recorded as “marginal decrease in nicotine SA” in series [5] (KO mice); “no effect on nicotine SA” in series [5] (doses 0, 5 and 10 mg/kg, WT mice).

As to `Cc1nc(C(=O)N2CCCC(C)(C)C2CNc2ncc(C(F)(F)F)cn2)c(-c2ccc(F)cc2)s1` (centres unmarked) [SR-12364, reference compound], the IC50 in series [2] (Table 5, read-out: OX1 IC50) was determined as 137 nM.

For the molecule `Cc1nc(C(=O)N2CCCCC2CNc2ncc(C(F)(F)F)cn2)c(-c2ccc(F)cc2)s1` (centres unmarked) [SR-12376, reference compound], the IC50 in series [2] (Table 5, read-out: OX1 IC50) worked out at 13 nM.
